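A five-concentration, 48-hour dose response in 96-well plates underlies each endpoint, interpolated linearly between surrounding concentrations. TGI: concentration producing complete growth inhibition.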
Assays:
Assay in all cases: NCI tumour cell line growth inhibition, 48 h
DMS 114 small cell lung = test system: DMS 114 small cell lung
HCT-15 colon = test system: HCT-15 colon
HOP-92 NSCLC = test system: HOP-92 NSCLC
SK-MEL-2 melanoma = test system: SK-MEL-2 melanoma
SNB-75 CNS = test system: SNB-75 CNS
SNB-78 CNS = test system: SNB-78 CNS
UACC-257 melanoma = test system: UACC-257 melanoma
CAKI-1 renal = test system: CAKI-1 renal
DLD-1 colon = test system: DLD-1 colon
MALME-3M melanoma = test system: MALME-3M melanoma
MOLT-4 leukemia = test system: MOLT-4 leukemia
NCI-H226 lung = test system: NCI-H226 lung
NCI-H522 lung = test system: NCI-H522 lung
SK-OV-3 ovarian = test system: SK-OV-3 ovarian

SMILES	TGI (DMS 114 small cell lung)	TGI (HCT-15 colon)	TGI (HOP-92 NSCLC)	TGI (SK-MEL-2 melanoma)	TGI (SNB-75 CNS)	TGI (SNB-78 CNS)	TGI (UACC-257 melanoma)	TGI (CAKI-1 renal)	TGI (DLD-1 colon)	TGI (MALME-3M melanoma)	TGI (MOLT-4 leukemia)	TGI (NCI-H226 lung)	TGI (NCI-H522 lung)	TGI (SK-OV-3 ovarian)
CCn1cnnc1-c1nsc2ccccc12	> 100 µM	> 100 µM	> 100 µM	> 100 µM	41.8 µM	> 100 µM	> 100 µM	–	–	–	–	–	–	–
Cc1ccc2c(=O)c3ccccc3sc2c1	–	–	–	–	–	–	–	> 100 µM	> 100 µM	> 100 µM	> 100 µM	> 100 µM	> 100 µM	> 100 µM

Source: PubChem BioAssay (NCI)
